Experimental data reported in the supplement of paper PMC4862054.

Tests used:
Experiment in all cases: drug sensitivity score (DSS), CellTiter-Blue viability (DSS (AUC-based score)); higher = stronger viability inhibition; extreme values may be limits of the assay
Conditions in all cases: incubation time: 72 h
BT-474 = system: BT-474
Experimental: (§1)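 DSRT with the CellTiter-Blue (resazurin reduction) viability readout, fluorescence 560/590 nm, 72 h incubation. Plates were normalised to DMSO and benzethonium chloride controls. DSS is computed from the area under the fitted dose-response curve (5 or 9 concentrations).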

DU-4475 = system: DU-4475
Experimental: as §1

MDA-MB-436 = system: MDA-MB-436
Experimental: as §1

Row | Compound | drug sensitivity score (BT-474) | drug sensitivity score (DU-4475) | drug sensitivity score (MDA-MB-436)
1 | O=C1CCC(N2C(=O)c3ccccc3C2=O)C(=O)N1 (stereo not drawn) [Thalidomide] | 0 | 0 | 0
2 | CCC1(c2ccc(N)cc2)CCC(=O)NC1=O (stereo not drawn) [Aminoglutethimide] | 0 | 0 | 0
3 | CN(C)/N=N/c1[nH]cnc1C(N)=O [Dacarbazine] | 0 | 0 | 0
4 | COc1cc2nccc(Oc3ccc(NC(=O)C4(C(=O)Nc5ccc(F)cc5)CC4)cc3)c2cc1OC [Cabozantinib] | 0 | 0 | 0
5 | COc1cc([C@@H]2c3cc4c(cc3[C@@H](O[C@@H]3O[C@@H]5CO[C@@H](C)O[C@H]5[C@H](O)[C@H]3O)[C@H]3COC(=O)[C@H]23)OCO4)cc(OC)c1O [Etoposide] | 0.298 | 19.8 | 3.41
6 | Oc1nc(-c2ccc(C(F)(F)F)cc2)nc2c1CSCC2 [XAV-939] | 0 | 0 | 0
7 | N[C@@H](CSC(c1ccccc1)(c1ccccc1)c1ccccc1)C(=O)O [S-trityl-L-cysteine] | 4.93 | 0 | 4.31
8 | CC(C)Cn1cnc2c(N)nc3ccccc3c21 [Imiquimod] | 0 | 0 | 0
9 | CC(=O)Nc1ccc(C(=O)Nc2ccccc2N)cc1 [CI-994] | 0 | 0 | 0
10 | C[C@@H](Oc1cc(-c2cnn(C3CCNCC3)c2)cnc1N)c1c(Cl)ccc(F)c1Cl [Crizotinib] | 5.02 | 3.43 | 14.8
11 | C[C@]12CC[C@@H]3c4ccc(O)cc4C[C@@H](CCCCCCCCC[S+]([O-])CCCC(F)(F)C(F)(F)F)[C@H]3[C@@H]1CC[C@@H]2O (stereo partly drawn) [Fulvestrant] | 0 | 0 | 0
12 | Clc1ccc(Nc2nnc(Cc3ccncc3)c3ccccc23)cc1 [Vatalanib] | 0 | 0 | 0
13 | Cc1ccc(C(=O)Nc2ccc(CN3CCN(C)CC3)c(C(F)(F)F)c2)cc1C#Cc1cnc2cccnn12 [Ponatinib] | 0 | 0 | 0
14 | CN(N=O)C(=O)N[C@@H](C=O)[C@@H](O)[C@H](O)[C@H](O)CO [Streptozocin] | 0 | 0 | 0
15 | Cc1ccc(C(=O)N(CCCN)[C@@H](c2oc3cc(Cl)ccc3c(=O)c2Cc2ccccc2)C(C)C)cc1 | 21.6 | 20.2 | 13.4
16 | Cn1c(Nc2ccc(C(F)(F)F)cc2)nc2cc(Oc3ccnc(-c4ncc(C(F)(F)F)[nH]4)c3)ccc21 [RAF265] | 0 | 3.23 | 2.55
17 | C#Cc1cccc(Nc2ncnc3cc(OCCOC)c(OCCOC)cc23)c1 [Erlotinib] | 4.23 | 0 | 2.82
18 | N.N.[Cl][Pt][Cl] [Cisplatin] | 0 | 0 | 0
19 | CCN(CCCOc1ccc2c(Nc3cc(CC(=O)Nc4cccc(F)c4)[nH]n3)ncnc2c1)CCOP(=O)(O)O [Barasertib] | 0 | 4.75 | 0
20 | CC1(C)NC(=O)N(c2ccc([N+](=O)[O-])c(C(F)(F)F)c2)C1=O [Nilutamide] | 0 | 0 | 0
21 | Cn1c(CCCC(=O)O)nc2cc(N(CCCl)CCCl)ccc21 [Bendamustine] | 0 | 0 | 0
